{"source": "patent US20030153030A1", "about": "“Enzyme-catalyzed modification of substances in biological mixtures” (priority 1999, published 2003)", "key": {"[1]": {"experiment": "Activity of salicin derivative as opposed to salicin", "settings": "modified versus unmodified salicin"}, "MSCP5 cells": {"system": "MSCP5 cells", "experiment": "Prostaglandin synthesis/release in 14C-arachidonic acid-marked skin keratinocytes", "type": "cell-based, Murine", "settings": "NS398 10 μM, positive control, 2 hours incubation", "experimental": "FIG. 1 is a schematic illustration of the effects of salicin and salicin esters on the release of prostaglandin in keratinocytes. The average value of three measuring points is shown. In FIG. 1, 1=negative control, 2=salicin, 3=phenyl propionyl salicin, 4=p-OH-phenyl acetyl salicin and 5=positive control.\nMurine (MSCP5) and human (HPKII) skin keratinocytes were marked for 16 hours with 0.2 μCi ^14C-arachidonic acid/ml medium. Salicin, phenylpropionyl salicin and p-OH-phenylacetyl salicin in fresh medium were added in increasing concentrations as test substances and incubated for 2 hours. In the positive control NS398 (10 μM) for MSCP5 cells, prostaglandin synthesis is reduced by 85%. The prostaglandins were identified by comparison with reference substances and quantified by radiodensitometry. MSCP5: 100%=201 cpm; HPKII: 100%=63 cpm."}}, "data": [{"smiles": "O=C(Cc1ccc(O)cc1)OCC1OC(Oc2ccccc2CO)C(O)C(O)C1O", "note": "(centres unmarked) [p-OH-phenyl acetoyl salicin, p-OH-phenylacetyl salicin]", "values": [{"measurement": "improvement of activity as opposed to salicin", "setting": "[1]", "value": "improvements are also shown"}]}, {"smiles": "CS(=O)(=O)Nc1ccc([N+](=O)[O-])cc1OC1CCCCC1", "note": "[NS398]", "values": [{"measurement": "prostaglandin synthesis is reduced by", "setting": "MSCP5 cells", "value": 85, "unit": "%"}]}]}
